Broadly, the IC50 is the concentration at which inhibition is half-maximal.

Where a name gives a salt, the structure may show the parent alone.

Among the data in US9216968B2, “Heterocyclic derivative and pharmaceutical drug” (NIPPON SHINYAKU CO., LTD., priority 2011, dated 2015) are IC50 values, retold here.

The target of one assay is human mPGES-1 (Homo sapiens (Human), UniProt O14684). Put plainly: mPGES-1 inhibiting activity (microsome fractions, PGE2 by HTRF). In kind it is biochemical. To be noted: microsomes from CHO-K1 cells transfected with human mPGES-1; PGH2 1 μM, 4° C., 60 seconds; read-out: mPGES-1 Inhibition IC50. The method, then:
mPGES-1 microsome fractions were prepared from CHO-K1 cells transiently transfected with plasmid encoding the human mPGES-1cDNA. Microsomes were diluted with potassium phosphate buffer containing reduced glutathione (pH7.4), and DMSO containing test compound or DMSO alone was added (such that DMSO final concentration would be 1% in each) and incubated at 4° C. for 20 minutes. Then, the enzymatic reactions were initiated by the addition of PGH2 substrate (final concentration 1 μM) and incubated at 4° C. for 60 seconds. The reaction was terminated by the addition of a citrate solution (final citrate concentration 50 mM) containing ferric chloride (final concentration 1 mg/mL). PGE2 production in the enzyme reaction aliquot was measured using HTRF kit (Cisbio International, catalogue #62P2APEC). The solution free of test compound was used as positive control, and the solution free of test compound and microsome sample was used as negative control. 100% activity was defined as PGE2 production in the positive control minus PGE2 production in negative control. IC50 value was calculated by standard method.
A general note: In TR-FRET formats the signal depends on donor and acceptor labels being close together.

The test system of the next assay is A549 cells. As to the kind of experiment: Inhibition of PGE2 production in A549 cell (IL-1β stimulated). In kind it is cell-based, human. To be noted: Homo sapiens, A549, 24 h, IL-1β 5 ng/well, PGE2 in culture medium. The procedure: Human A549 cells were seeded onto a 96-well plate at 2×10^4 cells/100 μL per well and allowed to incubate overnight. After removing the culture medium and washing with phosphate buffered saline, the culture medium was replaced by RPMI culture medium with 3% FBS containing a DMSO solution containing test compound or DMSO alone (such that DMSO final concentration would be […] in each). After incubation for 60 minutes, IL-1β (5 ng/well) was added and incubated at 37° C. for 24 hours. Then, PGE2 in the culture medium was measured using HTRF kit (Cisbio International, catalogue #62P2APEC), and PGF2α in the culture medium was measured using EIA kit (Cayman Chemical Company, catalogue #516011). The solution free of test compound was used as positive control, and the solution free of test compound and IL-1β was used as negative control. 100% activity was defined as PGE2 and PGF2α production in the positive control minus PGE2 and PGF2α production in the negative control. IC50 value was calculated by standard method.

Sequence of human mPGES-1 (O14684 whole entry): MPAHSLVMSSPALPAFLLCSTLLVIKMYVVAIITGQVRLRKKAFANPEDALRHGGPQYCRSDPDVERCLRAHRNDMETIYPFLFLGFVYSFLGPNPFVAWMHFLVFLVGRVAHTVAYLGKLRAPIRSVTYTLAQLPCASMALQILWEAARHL

With `Cc1c(Cl)cccc1NC(=O)c1cc(NC(=O)c2cc(Cl)ccc2Cl)cc2[nH]c([C@H]3CCCO3)nc12` [Example 129, N-(3-Chloro-2-methylphenyl)-6-{[(2,5-dichlorophenyl)carbonyl]amino}-2-[(2R)-tetrahydrofuran-2-yl]-1H-benzimidazole-4-carboxamide hydrochloride], the values for the IC50 at human mPGES-1 and in the assay on A549 cells were 59.4 nM and 178 nM, respectively.
For `COCc1nc2c(C(=O)Nc3ccc(C(F)(F)F)cc3)cc(NC(=O)c3ccccc3C(F)(F)F)cc2[nH]1` [Example 28, 2-(Methoxymethyl)-N-[4-(trifluoromethyl)phenyl]-6-({[2-(trifluoromethyl)phenyl]carbonyl}amino)-1H-benzimidazole-4-carboxamide hydrochloride], in that order: 3.3 nM and 114 nM.
For `COCc1nc2c(C(=O)Nc3c(C)cccc3Cl)cc(NC(=O)c3ccccc3C(F)(F)F)cc2[nH]1` [Example 43, N-(2-Chloro-6-methylphenyl)-2-(methoxymethyl)-6-({[2-(trifluoromethyl)phenyl]carbonyl}amino)-1H-benzimidazole-4-carboxamide hydrochloride], in that order: 70.7 nM and 438 nM.
The corresponding values for `NC(=O)Cc1nc2c(C(=O)NCc3ccccc3C(F)(F)F)cc(NC(=O)c3ccccc3C(F)(F)F)cc2[nH]1` [Example 45, 2-(2-Amino-2-oxoethyl)-N-[2-(trifluoromethyl)benzyl]-6-({[2-(trifluoromethyl)phenyl]carbonyl}amino)-1H-benzimidazole-4-carboxamide hydrochloride] are 4.9 nM and 2080 nM.
In the case of `Cc1c(Cl)cccc1NC(=O)c1cc(NC(=O)c2ccccc2C(F)(F)F)cc2[nH]c(NC[C@@H]3CCCO3)nc12` [Example 168, N-(3-Chloro-2-methylphenyl)-2-{[(2S)-tetrahydrofuran-2-ylmethyl]amino}-6-({[2-(trifluoromethyl)phenyl]carbonyl}amino)-1H-benzimidazole-4-carboxamide hydrochloride], the half-maximal inhibitory concentration (IC50) stood at 3.2 nM on human mPGES-1 and 23.9 nM in the assay on A549 cells.
For `Cc1c(Cl)cccc1NC(=O)c1cc(NC(=O)c2ccccc2C(F)(F)F)cc2[nH]c(N)nc12` [Example 157, 2-Amino-N-(3-chloro-2-methylphenyl)-6-({[2-(trifluoromethyl)phenyl]carbonyl}amino)-1H-benzimidazole-4-carboxamide hydrochloride], in that order: 3.9 nM and 10900 nM.
The corresponding values for `COCc1nc2c(C(=O)Nc3cccc(Cl)c3C)cc(NC(=O)c3c(F)cccc3Br)cc2[nH]1` [Example 103, 6-{[(2-Bromo-6-fluorophenyl)carbonyl]amino}-N-(3-chloro-2-methylphenyl)-2-(methoxymethyl)-1H-benzimidazole-4-carboxamide hydrochloride] are 2.8 nM and 59.6 nM.
The corresponding values for `COCCc1nc2c(C(=O)Nc3cccc(Cl)c3C)cc(NC(=O)c3ccccc3C(F)(F)F)cc2[nH]1` [Example 81, N-(3-Chloro-2-methylphenyl)-2-(2-methoxyethyl)-6-({[2-(trifluoromethyl)phenyl]carbonyl}amino)-1H-benzimidazole-4-carboxamide hydrochloride] are 5 nM and 404 nM.
Regarding `Cc1c(Cl)cccc1NC(=O)c1cc(NC(=O)c2ccccc2C(F)(F)F)cc2[nH]c([C@@H]3CCCN3C)nc12` [Example 72, N-(3-Chloro-2-methylphenyl)-2-[(2S)-1-methylpyrrolidin-2-yl]-6-({[2-(trifluoromethyl)phenyl]carbonyl}amino)-1H-benzimidazole-4-carboxamide], the concentration for half-maximal inhibition (IC50) at human mPGES-1 was found to be 9.8 nM; with A549 cells it was 60 nM.
As for `COCc1nc2c(C(=O)Nc3ccccc3)cc(NC(=O)c3ccccc3C(F)(F)F)cc2[nH]1` [Example 214, 2-(Methoxymethyl)-N-phenyl-6-({[2-(trifluoromethyl)phenyl]carbonyl}amino)-1H-benzimidazole-4-carboxamide hydrochloride], the IC50 at human mPGES-1 came to 5.2 nM; in the assay on A549 cells, 60.7 nM.
For `COCC(C)(C)CN(C)c1nc2c(C(=O)Nc3cccc(Cl)c3C)cc(NC(=O)c3ccccc3C(F)(F)F)cc2[nH]1` [Example 173, N-(3-Chloro-2-methylphenyl)-2-[(3-methoxy-2,2-dimethylpropyl)(methyl)amino]-6-({[2-(trifluoromethyl)phenyl]carbonyl}amino)-1H-benzimidazole-4-carboxamide hydrochloride], in that order: 1.1 nM and 60.8 nM.
The corresponding values for `Cc1c(Cl)cccc1NC(=O)c1cc(NC(=O)c2ccccc2C(F)(F)F)cc2[nH]c(NCC(=O)OC(C)(C)C)nc12` [Example 160, tert-Butyl N-{4-[(3-chloro-2-methylphenyl)carbamoyl]-6-({[2-(trifluoromethyl)phenyl]carbonyl}amino)-1H-benzimidazol-2-yl}glycinate hydrochloride] are 7.6 nM and 71.6 nM.
For `Cc1ccc(NC(=O)c2cc(NC(=O)c3c(F)cccc3Cl)cc3[nH]c(N(C)C)nc23)cc1Cl` [Example 205, 6-{[(2-Chloro-6-fluorophenyl)carbonyl]amino}-N-(3-chloro-4-methylphenyl)-2-(dimethylamino)-1H-benzimidazole-4-carboxamide hydrochloride], in that order: 3.7 nM and 25.6 nM.
Take `COCc1nc2c(C(=O)Nc3ccccc3OC)cc(NC(=O)c3ccccc3C(F)(F)F)cc2[nH]1` [Example 36, 2-(Methoxymethyl)-N-(2-methoxyphenyl)-6-({[2-(trifluoromethyl)phenyl]carbonyl}amino)-1H-benzimidazole-4-carboxamide]: the results for the IC50 at human mPGES-1 and with A549 cells were 147 nM and 234 nM, respectively.
For `COCc1nc2c(C(=O)Nc3ccc(C)cc3C)cc(NC(=O)c3ccccc3C(F)(F)F)cc2[nH]1` [Example 29, N-(2,4-Dimethylphenyl)-2-(methoxymethyl)-6-({[2-(trifluoromethyl)phenyl]carbonyl}amino)-1H-benzimidazole-4-carboxamide hydrochloride], in that order: 3.5 nM and 85.5 nM.
The corresponding values for `Cc1ccc(NC(=O)c2cc(NC(=O)c3cc(Cl)ccc3Cl)cc3[nH]c(C(C)(C)C)nc23)cc1Cl` [Example 88, 2-tert-Butyl-N-(3-chloro-4-methylphenyl)-6-{[(2,5-dichlorophenyl)carbonyl]amino}-1H-benzimidazole-4-carboxamide hydrochloride] are 15.1 nM and 9.2 nM.
For `COCC(C)(C)CNc1nc2c(C(=O)Nc3cccc(Cl)c3C)cc(NC(=O)c3cc(Cl)ccc3Cl)cc2[nH]1` [Example 190, N-(3-Chloro-2-methylphenyl)-6-{[(2,5-dichlorophenyl)carbonyl]amino}-2-[(3-methoxy-2,2-dimethylpropyl)amino]-1H-benzimidazole-4-carboxamide hydrochloride], in that order: 0.1 nM and 7 nM.
`Cc1c(Cl)cccc1NC(=O)c1cc(NC(=O)c2ccccc2C(F)(F)F)cc2[nH]c(N3CCC3)nc12` [Example 165, 2-(Azetidin-1-yl)-N-(3-chloro-2-methylphenyl)-6-({[2-(trifluoromethyl)phenyl]carbonyl}amino)-1H-benzimidazole-4-carboxamide hydrochloride]: the concentration for half-maximal inhibition (IC50) at human mPGES-1 is 1.3 nM; in the assay with A549 cells it was 7.4 nM.
`COCc1nc2c(C(=O)Nc3cccc(Cl)c3C)cc(NC(=O)c3c(Cl)cccc3Br)cc2[nH]1` [Example 102, 6-{[(2-Bromo-6-chlorophenyl)carbonyl]amino}-N-(3-chloro-2-methylphenyl)-2-(methoxymethyl)-1H-benzimidazole-4-carboxamide hydrochloride]: the figures for the IC50 at human mPGES-1 and with A549 cells were 1.6 nM and 49.1 nM, respectively.
As to `O=C(Nc1cc(C(=O)NCc2ccccc2C(F)(F)F)c2nc[nH]c2c1)c1ccccc1C(F)(F)F` [Example 1, N-[2-(Trifluoromethyl)benzyl]-6-({[2-(trifluoromethyl)phenyl]carbonyl}amino)-1H-benzimidazol-4-carboxamide], the concentration for half-maximal inhibition (IC50) in the assay with A549 cells amounted to 88.9 nM.
With `COCc1nc2c(C(=O)Nc3nc4cc(Cl)ccc4o3)cc(NC(=O)c3ccccc3C(F)(F)F)cc2[nH]1` [Example 228, N-(5-Chloro-1,3-benzoxazol-2-yl)-2-(methoxymethyl)-6-({[2-(trifluoromethyl)phenyl]carbonyl}amino)-1H-benzimidazole-4-carboxamide hydrochloride], the half-inhibitory concentration (IC50) on human mPGES-1 is 1.7 nM.
